Patent publication US20090068290A1, “BIFEPRUNOX DOSES FOR TREATING SCHIZOPHRENIA” (priority 2006, published 2009)

Experiments:
Type in all cases: in vivo, human
[1] = test system: adult subjects with schizophrenia; assay: BPRS psychosis cluster score, Clinical Study Two; conditions: for Change from Baseline in BPRS Psychosis Cluster Score, Mean (SD) / Change from Baseline in BPRS Psychosis Cluster Score, Median / Change from Baseline in BPRS Psychosis Cluster Score, Trt Effect (bifeprunox—placebo) / mean change (SD) from Baseline to Endpoint in BPRS psychosis cluster score: LOCF; for Change from Baseline in BPRS Psychosis Cluster Score, Mean (SD) / Change from Baseline in BPRS Psychosis Cluster Score, Median / Change from Baseline in BPRS Psychosis Cluster Score, Trt Effect (bifeprunox—placebo): ITT population; for BPRS psychosis cluster score, treatment effect (bifeprunox—placebo): Endpoint LOCF; for mean change (SD) from Baseline to Endpoint in BPRS psychosis cluster score: ITT
Description: Rating scale assessments were performed weekly, except for week 5, to measure the change from baseline to endpoint of the PANSS total score. Other assessments included: PANSS positive symptom subscale score, PANSS negative symptom subscale score, PANSS general pschopathology subscale score, BPRS total score, BPRS psychosis score, the CGI-S score, the CGI-I score, responder rates based on the PANSS total score, and the Calgary Depression Scale for Schizophrenia (CDSS). […]
Subjects who completed this study had the option to continue in the long-term. […] Risperidone-treated subjects were titrated from 2 mg to 6 mg daily over a three-day period and were subsequently maintained at 6 mg/day for the remainder of the treatment period. […] Blood samples were also obtained at Screening/Baseline, Week 3, and Week 6 for clinical laboratory assessments.

[2] = test system: adult subjects with schizophrenia; assay: PANSS negative subscale score, Clinical Study One; conditions: ITT; for PANSS Negative Subscale Score, Trt Effect (bifeprunox—placebo): ANCOVA
Description: (§1) There were five treatment groups in this study. […] Study medication was administered once daily. After Baseline measurements were performed, the titration phase was begun. Bifeprunox treated subjects were titrated up to 5 mg, 10 mg or 20 mg according to a standardized titration schedule (Day 1: 0.125 mg, Day 2: 0.25 mg, Day 3: 0.5 mg, Day 4: 1.0 mg, Day 5: 2.0 mg, Day 6: 5.0 mg, Day 7: 10.0 mg, Day 8: 20 mg). When the assigned dose was reached, subjects were maintained at that dose for the remainder of the six-week treatment period.
The change in the Positive and Negative Symptom Scale (PANSS) total score, from baseline to endpoint, was the primary outcome measure. Secondary efficacy measures included: PANSS positive, PANSS negative, PANSS general psychopathology (GPP) score, PANSS-derived Brief Psychiatric Rating Scale (BPRS) score, Clinical Global Impressions-Severity of Illness (CGI-S), CGI-Improvement (CGI-I) scores, and responder rates. Safety and tolerability evaluations included extrapyramidal symptoms (EPS), weight gain, lipid profile, and serum prolactin.

[3] = test system: adult subjects with schizophrenia; assay: BPRS psychosis cluster score, Clinical Study One; conditions: for Change from Baseline in BPRS Psychosis Cluster Score, Mean (S.D.) / Change from Baseline in BPRS Psychosis Cluster Score, Median / Change from Baseline in BPRS Psychosis Cluster Score, Trt Effect (bifeprunox—placebo) / Change from Baseline in BPRS Psychosis Cluster Score, Mean S.D.: ITT population
Description: as §1

[4] = Bifeprunox 30 mg, Week 6/Endpoint
[5] = Bifeprunox 40 mg, Week 6/Endpoint
[6] = Bifeprunox 10 mg, Endpoint LOCF
[7] = Bifeprunox 20 mg, Endpoint LOCF

Structure (SMILES): O=c1[nH]c2cccc(N3CCN(Cc4cccc(-c5ccccc5)c4)CC3)c2o1 [Bifeprunox, 7-[4-([1,1′-biphenyl]-3-ylmethyl)-1-piperazinyl]-2(3H)-benzoxazolone]
- Change from Baseline in BPRS Psychosis Cluster Score, Mean (SD) ([1]; Bifeprunox 30 mg, Week 1): −1.7 (2.3)
- Change from Baseline in BPRS Psychosis Cluster Score, Median ([1]; Bifeprunox 30 mg, Week 1): −1
- Change from Baseline in BPRS Psychosis Cluster Score, Median ([1]; Bifeprunox 30 mg, Week 2): −2
- Change from Baseline in BPRS Psychosis Cluster Score, Mean (SD) ([1]; Bifeprunox 30 mg, Week 3): −3.1 (3.8)
- Change from Baseline in BPRS Psychosis Cluster Score, Median ([1]; Bifeprunox 30 mg, Week 3): −2
- Change from Baseline in BPRS Psychosis Cluster Score, Mean (SD) ([1]; Bifeprunox 30 mg, Week 4): −3.1 (3.8)
- Change from Baseline in BPRS Psychosis Cluster Score, Median ([1]; Bifeprunox 30 mg, Week 4): −3
- Change from Baseline in BPRS Psychosis Cluster Score, Mean (SD) [1, 4]: −3.2 (4.2)
- Change from Baseline in BPRS Psychosis Cluster Score, Median [1, 4]: −3
- Change from Baseline in BPRS Psychosis Cluster Score, Trt Effect (bifeprunox—placebo) [1, 4]: −1.4
- Change from Baseline in BPRS Psychosis Cluster Score, Mean (SD) ([1]; Bifeprunox 40 mg, Week 1): −1.7 (2.6)
- Change from Baseline in BPRS Psychosis Cluster Score, Median ([1]; Bifeprunox 40 mg, Week 1): −1
- Change from Baseline in BPRS Psychosis Cluster Score, Mean (SD) ([1]; Bifeprunox 40 mg, Week 2): −2.2 (3.5)
- Change from Baseline in BPRS Psychosis Cluster Score, Median ([1]; Bifeprunox 40 mg, Week 2): −2
- Change from Baseline in BPRS Psychosis Cluster Score, Mean (SD) ([1]; Bifeprunox 40 mg, Week 3): −2.5 (4.0)
- Change from Baseline in BPRS Psychosis Cluster Score, Median ([1]; Bifeprunox 40 mg, Week 3): −2
- Change from Baseline in BPRS Psychosis Cluster Score, Mean (SD) ([1]; Bifeprunox 40 mg, Week 4): −2.5 (4.2)
- Change from Baseline in BPRS Psychosis Cluster Score, Median ([1]; Bifeprunox 40 mg, Week 4): −1
- Change from Baseline in BPRS Psychosis Cluster Score, Mean (SD) [1, 5]: −2.6 (4.4)
- Change from Baseline in BPRS Psychosis Cluster Score, Median [1, 5]: −2
- Change from Baseline in BPRS Psychosis Cluster Score, Trt Effect (bifeprunox—placebo) [1, 5]: −1.0
- BPRS psychosis cluster score, treatment effect (bifeprunox—placebo) ([1]; bifeprunox 30 mg): −1.4
- mean change (SD) from Baseline to Endpoint in BPRS psychosis cluster score ([1]; bifeprunox 30 mg): −3.2 (4.2)
- BPRS psychosis cluster score, treatment effect (bifeprunox—placebo) ([1]; bifeprunox 40 mg): −1.0
- mean change (SD) from Baseline to Endpoint in BPRS psychosis cluster score ([1]; bifeprunox 40 mg): −2.6 (4.4)
- Change from Baseline in PANSS Negative Subscale Score, Mean (S.D.) ([2]; Bifeprunox 5 mg, Endpoint LOCF): −2.2 (4.9)
- Change from Baseline in PANSS Negative Subscale Score, Median ([2]; Bifeprunox 5 mg, Endpoint LOCF): −2
- PANSS Negative Subscale Score, Trt Effect (bifeprunox—placebo) ([2]; Bifeprunox 5 mg, Endpoint LOCF): −1.0
- Change from Baseline in PANSS Negative Subscale Score, Mean (S.D.) ([2]; Bifeprunox 5 mg, Week 1, LOCF): −1.1 (3.9)
- Change from Baseline in PANSS Negative Subscale Score, Median ([2]; Bifeprunox 5 mg, Week 1, LOCF): −1
- Change from Baseline in PANSS Negative Subscale Score, Mean (S.D.) ([2]; Bifeprunox 5 mg, Week 2, LOCF): −1.8 (4.4)
- Change from Baseline in PANSS Negative Subscale Score, Median ([2]; Bifeprunox 5 mg, Week 2, LOCF): −2
- Change from Baseline in PANSS Negative Subscale Score, Mean (S.D.) ([2]; Bifeprunox 5 mg, Week 3, LOCF): −1.8 (4.7)
- Change from Baseline in PANSS Negative Subscale Score, Median ([2]; Bifeprunox 5 mg, Week 3, LOCF): −2
- Change from Baseline in PANSS Negative Subscale Score, Mean (S.D.) ([2]; Bifeprunox 5 mg, Week 4, LOCF): −2.0 (4.9)
- Change from Baseline in PANSS Negative Subscale Score, Median ([2]; Bifeprunox 5 mg, Week 4, LOCF): −1
- Change from Baseline in PANSS Negative Subscale Score, Mean (S.D.) [2, 6]: −1.7 (4.7)
- Change from Baseline in PANSS Negative Subscale Score, Median [2, 6]: −1
- Change from Baseline in PANSS Negative Subscale Score, Mean (S.D.) ([2]; Bifeprunox 10 mg, Week 1, LOCF): −1.4 (3.4)
- Change from Baseline in PANSS Negative Subscale Score, Median ([2]; Bifeprunox 10 mg, Week 1, LOCF): −1
- Change from Baseline in PANSS Negative Subscale Score, Mean (S.D.) ([2]; Bifeprunox 10 mg, Week 2, LOCF): −1.5 (4.2)
- Change from Baseline in PANSS Negative Subscale Score, Median ([2]; Bifeprunox 10 mg, Week 2, LOCF): −1
- Change from Baseline in PANSS Negative Subscale Score, Mean (S.D.) ([2]; Bifeprunox 10 mg, Week 3, LOCF): −1.7 (5.0)
- Change from Baseline in PANSS Negative Subscale Score, Median ([2]; Bifeprunox 10 mg, Week 3, LOCF): −1
- Change from Baseline in PANSS Negative Subscale Score, Mean (S.D.) ([2]; Bifeprunox 10 mg, Week 4, LOCF): −1.5 (4.6)
- Change from Baseline in PANSS Negative Subscale Score, Median ([2]; Bifeprunox 10 mg, Week 4, LOCF): −1
- Change from Baseline in PANSS Negative Subscale Score, Mean (S.D.) [2, 7]: −2.6 (5.3)
- Change from Baseline in PANSS Negative Subscale Score, Median [2, 7]: −2
- PANSS Negative Subscale Score, Trt Effect (bifeprunox—placebo) [2, 7]: −1.4
- Change from Baseline in PANSS Negative Subscale Score, Mean (S.D.) ([2]; Bifeprunox 20 mg, Week 1, LOCF): −1.6 (3.4)
- Change from Baseline in PANSS Negative Subscale Score, Median ([2]; Bifeprunox 20 mg, Week 1, LOCF): −1
- Change from Baseline in PANSS Negative Subscale Score, Mean (S.D.) ([2]; Bifeprunox 20 mg, Week 2, LOCF): −2.0 (4.2)
- Change from Baseline in PANSS Negative Subscale Score, Median ([2]; Bifeprunox 20 mg, Week 2, LOCF): −1
- Change from Baseline in PANSS Negative Subscale Score, Mean (S.D.) ([2]; Bifeprunox 20 mg, Week 3, LOCF): −2.7 (4.4)
- Change from Baseline in PANSS Negative Subscale Score, Mean (S.D.) ([2]; Bifeprunox 20 mg, Week 4, LOCF): −2.5 (4.6)
- Change from Baseline in PANSS Negative Subscale Score, Median ([2]; Bifeprunox 20 mg, Week 4, LOCF): −2
- BPRS psychosis cluster score, treatment effect (bifeprunox—placebo) ([3]; Bifeprunox 5 mg, Endpoint LOCF): −0.9
- Change from Baseline in BPRS Psychosis Cluster Score, Mean (S.D.) ([3]; Bifeprunox 5 mg, Endpoint LOCF): 2.5 (3.8)
- Change from Baseline in BPRS Psychosis Cluster Score, Median ([3]; Bifeprunox 5 mg, Endpoint LOCF): −3
- Change from Baseline in BPRS Psychosis Cluster Score, Trt Effect (bifeprunox—placebo) ([3]; Bifeprunox 5 mg, Endpoint LOCF): −0.9
- Change from Baseline in BPRS Psychosis Cluster Score, Mean (S.D.) ([3]; Bifeprunox 5 mg, Week 1, LOCF): −1.0 (2.6)
- Change from Baseline in BPRS Psychosis Cluster Score, Median ([3]; Bifeprunox 5 mg, Week 1, LOCF): −1
- Change from Baseline in BPRS Psychosis Cluster Score, Mean S.D. ([3]; Bifeprunox 5 mg, Week 2, LOCF): −1.8 (3.3)
- Change from Baseline in BPRS Psychosis Cluster Score, Median ([3]; Bifeprunox 5 mg, Week 2, LOCF): −2
- Change from Baseline in BPRS Psychosis Cluster Score, Mean (S.D.) ([3]; Bifeprunox 5 mg, Week 3, LOCF): −2.2 (3.6)
- Change from Baseline in BPRS Psychosis Cluster Score, Median ([3]; Bifeprunox 5 mg, Week 3, LOCF): −2
- Change from Baseline in BPRS Psychosis Cluster Score, Mean (S.D.) ([3]; Bifeprunox 5 mg, Week 4, LOCF): −24 (3.8)
- Change from Baseline in BPRS Psychosis Cluster Score, Median ([3]; Bifeprunox 5 mg, Week 4, LOCF): −3
- BPRS psychosis cluster score, treatment effect (bifeprunox—placebo) [3, 6]: 0.4
- Change from Baseline in BPRS Psychosis Cluster Score, Mean (S.D.) [3, 6]: −1.2 (4.6)
- Change from Baseline in BPRS Psychosis Cluster Score, Median [3, 6]: 0
- Change from Baseline in BPRS Psychosis Cluster Score, Trt Effect (bifeprunox—placebo) [3, 6]: 0.4
- Change from Baseline in BPRS Psychosis Cluster Score, Mean (S.D.) ([3]; Bifeprunox 10 mg, Week 1, LOCF): −0.7 (3.0)
- Change from Baseline in BPRS Psychosis Cluster Score, Median ([3]; Bifeprunox 10 mg, Week 1, LOCF): −1
- Change from Baseline in BPRS Psychosis Cluster Score, Mean S.D. ([3]; Bifeprunox 10 mg, Week 2, LOCF): −1.1 (3.7)
- Change from Baseline in BPRS Psychosis Cluster Score, Median ([3]; Bifeprunox 10 mg, Week 2, LOCF): −1
- Change from Baseline in BPRS Psychosis Cluster Score, Mean (S.D.) ([3]; Bifeprunox 10 mg, Week 3, LOCF): −1.1 (4.2)
- Change from Baseline in BPRS Psychosis Cluster Score, Median ([3]; Bifeprunox 10 mg, Week 3, LOCF): −1
- Change from Baseline in BPRS Psychosis Cluster Score, Mean (S.D.) ([3]; Bifeprunox 10 mg, Week 4, LOCF): −1.1 (4.3)
- Change from Baseline in BPRS Psychosis Cluster Score, Median ([3]; Bifeprunox 10 mg, Week 4, LOCF): −1
- Change from Baseline in BPRS Psychosis Cluster Score, Mean (S.D.) [3, 7]: −2.7 (3.9)
- Change from Baseline in BPRS Psychosis Cluster Score, Median [3, 7]: −3
